Source: patent publication US5543498A, “Peptides to overcome inhibition of nerve growth” (The General Hospital Corporation, priority 1995, dated 1996)
“Also recorded” adds a separate entry of the source. Blank lines part the entries; values can stand above or below the substance they belong to. No end group written: not given here.

Legend:
[1] = test system: Chick dorsal root ganglion (DRG) neurons; assay type: cell-based
Experimental: Chick DRGs from embryonic day 7 (E7) were explanted onto laminin-coated chamber slides in F12 medium with 10 ng/ml nerve growth factor and 10% fetal bovine serum. After 20 hours, peptide solutions or phosphate-buffered saline (PBS) in 1 mM DTT was added to the explants (225 μl) and the mixture incubated at 27° C. for one hour. BME, prepared following the procedure of J. A. Raper and J. P. Kapfhammer, Neuron 2:21 (1990), was added to the explants and incubated for 30 minutes. For each explant, all growth cones were scored as collapsed or fan-shaped (M. Igarashi et al., Science 259:77 (1993)).
In another series of experiments the GAP-43 1-10 peptide was added into the culture medium at 10^-8 M one hour prior to the addition of BME. After 30 minutes incubation with BME, the explant was fixed in glutaraldehyde and its growth cones were scored.
After exposing the PTX treated neurons to BME and the GAP-43 1-10, the amount of growth cone collapse was measured.
The procedure described in Example 2 was followed with the exception that one hour prior to the addition of BME (0.15 mg protein/ml) to the DRG culture medium, either the methionine or tyrosine mutant peptide was introduced at a concentration of 10^-4 M.

Go = Go (Homo sapiens, UniProt P09471); test: GTPγ S binding to Go (nitrocellulose filtration assay); assay type: biochemical; conditions: for effect of mutant decapeptides on GTPγ S binding to Go: peptide 250 μM, binding without peptides = 100%; for effect on GTPγ S binding to Go, dose response: oxidized (performic acid) vs control peptide, same concentration range
Sequence of Go (P09471 whole entry): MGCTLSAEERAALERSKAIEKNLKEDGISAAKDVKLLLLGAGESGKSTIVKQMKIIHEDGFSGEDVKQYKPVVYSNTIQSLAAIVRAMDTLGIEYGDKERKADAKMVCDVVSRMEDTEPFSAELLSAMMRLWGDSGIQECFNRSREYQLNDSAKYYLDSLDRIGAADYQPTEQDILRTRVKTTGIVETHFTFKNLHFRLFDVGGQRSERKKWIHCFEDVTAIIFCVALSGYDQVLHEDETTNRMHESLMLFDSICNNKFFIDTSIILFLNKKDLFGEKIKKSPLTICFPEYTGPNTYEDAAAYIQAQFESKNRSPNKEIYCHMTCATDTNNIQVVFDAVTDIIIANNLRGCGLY
Experimental: The GAP-43 1-10 peptide was oxidized using performic acid according to the procedures of A. Roher et al., Proc. Natl. Acad. Sci. USA 83:2662 (1986). Briefly, 10 mM peptide was incubated with formic acid solution containing 3% H2 O2 at 25° C. for one hour. The activation state of Go was determined in a nitrocellulose filtration assay as described by S. M. Strittmatter et al., Proc. Natl. Acad. Sci. USA 90:5327 (1993).
Both cysteine residues at positions 3 and 4 in the native GAP-43 1-10 peptide were replaced with methionine, tyrosine, aspartate, glutamate, lysine, arginine, serine, and tryptophan. These mutant peptides were tested for their ability to influence GTPγ S binding to Go.

- effect of mutant decapeptides on GTPγ S binding to Go (Go; listed as tyrosine): inhibits GTPγ S binding to Go
Substance: [3Y, 4Y]GAP43 (1-10) (MLYYMRRTKQ) [peptide-Y, GAP-43 1-10 peptide with both cysteines at positions 3 and 4 replaced with tyrosine]
- shift of BME dose response: BME needed to cause 50% collapse ([1]; DRG, 10^-4 M peptide, relative to no peptide): about twice
- inhibition of growth cone collapse induced by BME ([1]; DRG, BME 0.15 mg protein/ml, peptide 10^-4 M one hour before BME): approximately 30%
- effect of the peptides by themselves on growth cones ([1]; doses used for the BME dose response (FIG. 3C)): do not have any evident effect by themselves
- effect of mutant decapeptides on GTPγ S binding to Go (Go): attenuate GTPγ S binding to Go; also recorded: antagonist of G protein stimulation

- effect on GTPγ S binding to Go, dose response (Go; listed as Oxidation of the GAP-43 1-10 N terminus): dose-dependent inhibition
- effect on GTPγ S binding to Go, dose response (Go; listed as Oxidation of the GAP-43 1-10 N-terminus): dose-dependent inhibition
- effect on GTPγ S binding to Go, dose response (Go; listed as oxidation of the peptide by performic acid): inhibitory for Go
Substance: oxidized GAP-43 1-10 peptide: GAP-43 1-10 peptide oxidized using performic acid (MLCCMRRTKQ; also: oxidized using performic acid)

Substance: pertussis toxin [PTX, reference compound]
- effect on growth cone collapse induced by BME ([1]; PTX 20 ng/ml, BME 0.075 mg/ml): do not inhibit the collapse induced by BME
- effect on GAP-43 1-10 peptide potentiation of BME-induced growth cone collapse ([1]; PTX 20 ng/ml, BME 0.075 mg/ml plus 10^-8 M GAP-43 1-10 peptide, listed as pertussis toxin): blocks
